Test results from patent US8431567B2 (Abbott GmbH & Co. KG, priority 2006, dated 2013).
Where a name gives a salt, the structure may show the parent alone.

Target: T1, human vasopressin V1b receptor (Homo sapiens, UniProt P47901)
T1 construct: expressed in transfected cells; host or cells: CHO-K1 (cell line hV1b_3H2_CHO), membrane preparation
T1 sequence (P47901 1-424): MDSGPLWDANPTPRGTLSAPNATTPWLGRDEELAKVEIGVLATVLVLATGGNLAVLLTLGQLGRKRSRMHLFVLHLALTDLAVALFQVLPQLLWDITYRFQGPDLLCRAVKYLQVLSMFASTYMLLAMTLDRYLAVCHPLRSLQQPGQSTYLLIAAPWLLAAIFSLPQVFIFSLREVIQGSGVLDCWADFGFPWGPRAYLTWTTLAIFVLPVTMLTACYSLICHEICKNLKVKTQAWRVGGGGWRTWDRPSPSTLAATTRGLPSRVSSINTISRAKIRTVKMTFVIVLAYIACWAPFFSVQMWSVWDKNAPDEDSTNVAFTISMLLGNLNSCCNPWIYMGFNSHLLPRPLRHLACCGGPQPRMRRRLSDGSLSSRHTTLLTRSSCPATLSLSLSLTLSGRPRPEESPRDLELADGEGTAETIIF
Experiment: Vasopressin V1b receptor binding test
Conditions: membranes of CHO-K1 cells, displacement of 1.5 nM 3H-AVP
Experimental: • Vasopressin V1b Receptor Binding Test: • Substances:
The test substances were dissolved at a concentration of 10^−2 M in DMSO and diluted further in DMSO to 5×10^−4 M to 5×10^−9 M. These DMSO solutions were diluted 1:10 with test buffer. The concentration of substance was again diluted 1:5 in the test preparation.
The membrane pellet was homogenized and centrifuged again as described, and then taken up in 50 mM Tris-HCl, pH 7.4, homogenized and, frozen in aliquots, stored at −190° C. in liquid nitrogen.
The incubation buffer was: 50 mM Tris, 10 mM MgCl2, 0.1% BSA, pH 7.4. […] The nonspecific binding was determined with 1 μM AVP (Bachem #H1780). All determinations were performed in triplicate. After incubation (60 minutes at room temperature), the free radioligand was filtered off by vacuum filtration (Skatron cell harvester 7000) on Whatman GF/B glass-fibre filter mats and the filters were transferred to scintillation vessels. Liquid scintillation measurement was performed in a Tricarb instrument, Model 2000 or 2200CA (Packard). Conversion of the measured cpm to dpm was performed with the aid of a standard quench series.
The binding parameters were calculated by nonlinear regression in SAS.
For the compounds according to the invention, the affinities for the human vasopressin receptor V1b were measured according to the above test and the affinity constant (Ki) was determined.

| Compound | Ki [nM] |
| --- | --- |
| COc1ccc(S(=O)(=O)N2C(=O)C(c3cc(F)ccc3OC)(N3CCN(c4ccncc4)CC3)c3cc(C#N)ccc32)c(OC)c1 (racemic) [Example 65, (±)-5-Cyano-1-(2,4-dimethoxy-benzenesulphonyl)-3-(5-fluoro-2-methoxyphenyl)-3-(4-pyridin-4-yl-piperazin-1-yl)-2,3-dihydro-1H-indol-2-one] | 50 to 500 |
| COc1ccc(S(=O)(=O)N2C(=O)C(c3cc(C)ccc3OC)(N3CCN(c4ccncc4)CC3)c3cc(C#N)ccc32)c(OC)c1 (racemic) [Example 67, (±)-5-Cyano-1-(2,4-dimethoxy-benzenesulphonyl)-3-(2-methoxy-5-methylphenyl)-3-(4-pyridin-4-yl-piperazin-1-yl)-2,3-dihydro-1H-indol-2-one×trifluoroacetic acid] | < 50 |
| CCOc1ccccc1C1(N2CCN(c3ccncc3)CC2)C(=O)N(S(=O)(=O)c2ccc(C#N)cc2F)c2ccc(C#N)cc21 (racemic) [Example 68, (±)-5-Cyano-1-(4-cyano-2-fluoro-benzenesulphonyl)-3-(2-ethoxyphenyl)-3-(4-pyridin-4-yl-piperazin-1-yl)-2,3-dihydro-1H-indol-2-one] | 50 to 500 |
| CCOc1ccccc1C1(N2CCN(c3ccncc3)CC2)C(=O)N(S(=O)(=O)c2ccc(F)cc2F)c2ccc(C#N)cc21 (racemic) [Example 72, (±)-5-Cyano-1-(2,4-difluoro-benzenesulphonyl)-3-(2-ethoxyphenyl)-3-(4-pyridin-4-yl-piperazin-1-yl)-2,3-dihydro-1H-indol-2-one trifluoroacetate] | 50 to 500 |
| CCOc1ccccc1C1(N2CCN(C3CCN(C)CC3)CC2)C(=O)N(S(=O)(=O)c2ccc(OC)cc2OC)c2ccc(C#N)cc21 (racemic) [Example 76, (±)-5-Cyano-1-(2,4-dimethoxy-benzenesulphonyl)-3-(2-ethoxyphenyl)-3-[4-(1-methyl-piperidin-4-yl)-piperazin-1-yl]-2,3-dihydro-1H-indol-2-one] | 50 to 500 |
| CCOc1ccc(S(=O)(=O)N2C(=O)C(c3ccccc3OCC)(N3CCN(c4ccncc4)CC3)c3cc(C#N)ccc32)c(OC)c1 (racemic) [Example 77, (±)-5-Cyano-1-(4-ethoxy-2-methoxy-benzenesulphonyl)-3-(2-ethoxyphenyl)-3-(4-pyridin-4-yl-piperazin-1-yl)-2,3-dihydro-1H-indol-2-one hydrochloride] | 50 to 500 |
| CCOc1ccccc1C1(N2CCN(c3ccncc3)CC2)C(=O)N(S(=O)(=O)c2ccc(Cl)cc2F)c2ccc(C#N)cc21 (racemic) [Example 78, (±)-5-Cyano-1-(4-chloro-2-fluoro-benzenesulphonyl)-3-(2-ethoxyphenyl)-3-(4-pyridin-4-yl-piperazin-1-yl)-2,3-dihydro-1H-indol-2-one] | 50 to 500 |
| CCOc1ccccc1C1(N2CCN(c3ccncc3)CC2)C(=O)N(S(=O)(=O)c2ccc(C(C)(C)C)cc2)c2ccc(C#N)cc21 (racemic) [Example 80, (±)-5-Cyano-1-(4-tert-butyl-benzenesulphonyl)-3-(2-ethoxyphenyl)-3-(4-pyridin-4-yl-piperazin-1-yl)-2,3-dihydro-1H-indol-2-one] | 50 to 500 |
| CCOc1ccccc1C1(N2CCN(c3ccncc3)CC2)C(=O)N(S(=O)(=O)c2ccc(C(C)C)cc2)c2ccc(C#N)cc21 (racemic) [Example 81, (±)-5-Cyano-3-(2-ethoxyphenyl)-1-(4-isopropyl-benzenesulphonyl)-3-(4-pyridin-4-yl-piperazin-1-yl)-2,3-dihydro-1H-indol-2-one] | 50 to 500 |
| CCOc1ccccc1C1(N2CCN(c3ccncc3)CC2)C(=O)N(S(=O)(=O)c2ccc(N)cc2)c2ccc(C#N)cc21 (racemic) [Example 84, (±)-5-Cyano-1-(4-amino-benzenesulphonyl)-3-(2-ethoxyphenyl)-3-(4-pyridin-4-yl-piperazin-1-yl)-2,3-dihydro-1H-indol-2-one] | 50 to 500 |
| CCOc1ccccc1C1(N2CCN(c3ccncc3)CC2)C(=O)N(S(=O)(=O)c2ccc(C)cc2)c2ccc(C#N)cc21 (racemic) [Example 85, (±)-5-Cyano-3-(2-ethoxyphenyl)-3-(4-pyridin-4-yl-piperazin-1-yl)-1-(toluene-4-sulphonyl)-2,3-dihydro-1H-indol-2-one] | 50 to 500 |
| CCOc1ccccc1C1(N2CCN(c3ccncc3)CC2)C(=O)N(S(=O)(=O)c2ccc(S(C)(=O)=O)cc2)c2ccc(C#N)cc21 (racemic) [Example 86, (±)-5-Cyano-3-(2-ethoxyphenyl)-1-(4-methanesulphonyl-benzenesulphonyl)-3-(4-pyridin-4-yl-piperazin-1-yl)-2,3-dihydro-1H-indol-2-one] | 50 to 500 |
| CCOc1ccccc1C1(N2CCN(c3ccncc3)CC2)C(=O)N(S(=O)(=O)c2ccc(OC(F)F)cc2)c2ccc(C#N)cc21 (racemic) [Example 87, (±)-5-Cyano-1-(4-difluoromethoxy-benzenesulphonyl)-3-(2-ethoxyphenyl)-3-(4-pyridin-4-yl-piperazin-1-yl)-2,3-dihydro-1H-indol-2-one] | 50 to 500 |
| CCOc1ccccc1C1(N2CCN(c3ccncc3)CC2)C(=O)N(S(=O)(=O)c2ccc(C(C)=O)cc2)c2ccc(C#N)cc21 (racemic) [Example 88, (±)-5-Cyano-1-(4-acetyl-benzenesulphonyl)-3-(2-ethoxyphenyl)-3-(4-pyridin-4-yl-piperazin-1-yl)-2,3-dihydro-1H-indol-2-one] | 50 to 500 |
| CCOc1ccc(S(=O)(=O)N2C(=O)C(c3ccccc3OCC)(N3CCN(c4ccncc4)CC3)c3cc(C#N)ccc32)cc1 (racemic) [Example 89, (±)-5-Cyano-1-(4-ethoxy-benzenesulphonyl)-3-(2-ethoxyphenyl)-3-(4-pyridin-4-yl-piperazin-1-yl)-2,3-dihydro-1H-indol-2-one] | 50 to 500 |
| CCOc1ccccc1C1(N2CCN(c3ccncc3)CC2)C(=O)N(S(=O)(=O)c2ccc(CC)cc2)c2ccc(C#N)cc21 (racemic) [Example 90, (±)-5-Cyano-3-(2-ethoxyphenyl)-1-(4-ethyl-benzenesulphonyl)-3-(4-pyridin-4-yl-piperazin-1-yl)-2,3-dihydro-1H-indol-2-one] | 50 to 500 |
| CCOc1ccccc1C1(N2CCN(c3ccncc3)CC2)C(=O)N(S(=O)(=O)c2ccc([N+](=O)[O-])cc2OC)c2ccc(C#N)cc21 (racemic) [Example 91, (±)-5-Cyano-3-(2-ethoxyphenyl)-1-(2-methoxy-4-nitro-benzenesulphonyl)-3-(4-pyridin-4-yl-piperazin-1-yl)-2,3-dihydro-1H-indol-2-one] | 50 to 500 |
| CCOc1ccc(OC)cc1C1(N2CCN(c3ccnc(C(C)C)c3)CC2)C(=O)N(S(=O)(=O)c2ccc(OC)cc2OC)c2ccc(C#N)cc21 (racemic) [Example 92, (±)-5-Cyano-1-(2,4-dimethoxy-benzenesulphonyl)-3-(2-ethoxy-5-methoxyphenyl)-3-[4-(2-isopropyl-pyridin-4-yl)-piperazin-1-yl]-2,3-dihydro-1H-indol-2-one] | < 50 |
| CCOc1ccccc1C1(N2CCN(c3ccnc(CC)c3)CC2)C(=O)N(S(=O)(=O)c2ccc(OC)cc2OC)c2ccc(C#N)cc21 (racemic) [Example 93, (±)-5-Cyano-1-(2,4-dimethoxy-benzenesulphonyl)-3-(2-ethoxyphenyl)-3-[4-(2-ethyl-pyridin-4-yl)-piperazin-1-yl]-2,3-dihydro-1H-indol-2-one] | < 50 |
| CCOc1ccc(OC)cc1C1(N2CCN(c3ccnc(CC)c3)CC2)C(=O)N(S(=O)(=O)c2ccc(OC)cc2OC)c2ccc(C#N)cc21 (racemic) [Example 94, (±)-5-Cyano-1-(2,4-dimethoxy-benzenesulphonyl)-3-(2-ethoxy-5-methoxyphenyl)-3-[4-(2-ethyl-pyridin-4-yl)-piperazin-1-yl]-2,3-dihydro-1H-indol-2-one] | < 50 |
| CCOc1ccc(OC)cc1C1(N2CCCN(c3ccnc(C)c3)CC2)C(=O)N(S(=O)(=O)c2ccc(OC)cc2OC)c2ccc(C#N)cc21 (racemic) [Example 95, (±)-5-Cyano-1-(2,4-dimethoxy-benzenesulphonyl)-3-(2-ethoxy-5-methoxyphenyl)-3-[4-(2-methyl-pyridin-4-yl)-[1.4]diazepan-1-yl]-2,3-dihydro-1H-indol-2-one] | < 50 |
| CCOc1ccc(OC)cc1C1(N2CCN(C3CCNCC3)CC2)C(=O)N(S(=O)(=O)c2ccc(OC)cc2OC)c2ccc(C#N)cc21 (racemic) [Example 100, (±)-5-Cyano-1-(2,4-dimethoxy-benzenesulphonyl)-3-(2-ethoxy-5-methoxyphenyl)-3-(4-piperidin-4-yl-piperazin-1-yl)-2,3-dihydro-1H-indol-2-one hydrochloride] | < 50 |
